Results as given in the NIST ThermoML archive (doi:10.1016/j.jct.2016.01.019).

Assay: refractive index (other wavelength) (dimensionless); xn = mol fraction of the nth substance listed
Conditions: 94.64 kPa, Liquid, Standard Abbe refractometry

OCCCO [propan-1,3-diol] + CC(O)CO
refractive index
Conditions	x2 = 0	x2 = 0.0985	x2 = 0.2023	x2 = 0.3015	x2 = 0.3961	x2 = 0.5009	x2 = 0.5961	x2 = 0.6965	x2 = 0.7974	x2 = 0.8985
308.15 K, Wavelength=404.7 nm	1.44755	1.44681	1.44642	1.44583	1.44528	1.44466	1.44403	1.44294	1.44202	1.44072
308.15 K, Wavelength=435.8 nm	1.44419	1.44355	1.44296	1.44258	1.44194	1.44132	1.4406	1.43962	1.43868	1.43738
308.15 K, Wavelength=486.1 nm	1.44027	1.43972	1.43922	1.43857	1.43806	1.43743	1.43673	1.43585	1.43482	1.43353
308.15 K, Wavelength=546.1 nm	1.43699	1.43636	1.43579	1.43522	1.4348	1.43417	1.43347	1.43254	1.43163	1.43033
308.15 K, Wavelength=587.6 nm	1.43529	1.43471	1.434	1.43353	1.4331	1.43247	1.43187	1.43093	1.42993	1.42865
308.15 K, Wavelength=632.8 nm	1.43375	1.43302	1.4324	1.432	1.43158	1.43095	1.43034	1.42938	1.42838	1.42712
308.15 K, Wavelength=644 nm	1.4334	1.43286	1.4322	1.43185	1.43123	1.43061	1.43	1.42895	1.42803	1.42677
308.15 K, Wavelength=706.5 nm	1.4317	1.43089	1.4305	1.42987	1.42955	1.42893	1.42834	1.42729	1.42637	1.42508
313.15 K, Wavelength=404.7 nm	1.44615	1.44547	1.44484	1.44421	1.44353	1.4429	1.44213	1.4412	1.44027	1.4391
313.15 K, Wavelength=435.8 nm	1.4428	1.44212	1.44145	1.44077	1.44021	1.43956	1.43886	1.43787	1.43694	1.43576
313.15 K, Wavelength=486.1 nm	1.43888	1.43822	1.43758	1.43688	1.43634	1.43565	1.435	1.43401	1.43313	1.43193
313.15 K, Wavelength=546.1 nm	1.43562	1.43502	1.4344	1.43385	1.43312	1.43257	1.43175	1.43082	1.42992	1.42873
